{"source": "patent US10472352B2", "about": "“Rac inhibitors” (Geneyus LLC, priority 2017, dated 2019)", "key": {"WM1158 cells": {"system": "WM1158 cells", "assay": "Western Blot Analysis of phosphorylated AKT, MEK1/2, ERK1/2", "assay_type": "cell-based", "conditions": "increasing concentrations, two hours, vs DMSO control", "excerpt": "Western blot analysis is used to identify specific proteins from a complex mixture of proteins extracted from cells. Equal amount of protein is run on the SDS-PAGE gel and after separating the protein mixture, it is transferred to a membrane. The transferred protein is then probed with a combination of antibodies: one antibody specific to the protein of interest (primary antibody) and another antibody specific to the host species of the primary antibody (secondary antibody). The secondary antibody is complexed with an enzyme, which when combined with an appropriate substrate, will produce a detectable signal.\nWM1158 cells were treated with increasing concentrations of 0032253 for two hours. SDS-PAGE was conducted on cell lysates and Western Blot analysis was conducted on samples for total and phosphorylated AKT, MEK1/2, and ERK1/2."}, "HUVECs [1]": {"system": "HUVECs", "assay": "Cellular Proliferation Assay", "assay_type": "cell-based", "conditions": "25 uM, cells counted day 0 through day 4", "protocol": "25,000 cells were seeded in 6-well plates. The next day, vehicle (DMSO) or 25 μM 0032253 was added to cells (Day 0). Cells were counted on days 0 through day 4 using a hemocytometer."}, "HUVECs [2]": {"system": "HUVECs", "assay": "HUVEC Tube Formation Assay", "assay_type": "cell-based", "conditions": "doses above 6.25 μM, 8 h, Matrigel", "protocol": "The endothelial cell tube formation assay is an in vitro assay that is widely accepted to accurately reflect number of terminal stages of the angiogenic process such as attachment, migration and differentiation into tubular structures. In this model, endothelial cells are cultured on a monolayer of reconstituted basement membrane components (Matrigel) and form, in a few hours, capillary-like structure. Therefore, this system is a useful and powerful tool for rapidly screening anti-angiogenic agents by monitoring inhibition of endothelial cells morphogenesis on extracellular matrix.\nHUVECs (5×10^3) were seeded on top of Matrigel in a 24-well plate. The cells were treated either with DMSO or different concentrations of the Rac1 inhibitor 0032253 (5, 6.25, 10, 12.5 μM) for 8 h in triplicate. The plates were scanned by LICOR Odyssey Imaging system."}, "HUVECs [3]": {"system": "HUVECs", "assay": "Cell Migration Assay (Boyden chamber)", "assay_type": "cell-based", "conditions": "5 uM", "protocol": "An essential characteristic of malignant cells is their ability to migrate, invade host tissues and to produce metastases. In order to evaluate the capacity of one compound to affect the ability of tumoral cells to migrate, migration assays were performed using HUVEC cells.\nHUVECs (2.5×10^4) were seeded onto uncoated filters in a 24-well transwell Boyden chamber ([…]; Costar) and allowed to migrate in the presence and absence of different doses of the Rac1 inhibitor 0032253 (5, 6.25, 10, 12.5, 20, 25 μM). The cells that migrated to the underside of the filter were stained with crystal violet and counted under the bright field microscopy."}, "Rac1 protein": {"molecular_target": "T1, Rac1 protein (Homo sapiens, UniProt P63000)", "T1 construct": "purchased Cytoskeleton Inc. RC01", "assay": "Fluorescence Polarization Assay (Rac1 FP)", "assay_type": "binding", "conditions": "125 nM his-tagged Rac1, 12.5 nM Bodipy-TR GTPγS, 30 minutes at 37° C.", "protocol": "Direct binding of Rac1 compound inhibitors to Rac1 protein was performed using fluorescence polarization (FP). Briefly, Rac1 inhibitors were initially dissolved in DMSO and then serial drug dilutions in exchange buffer (20 mM Tris pH 7.5, 50 mM NaCl, 1 mM MgCl, 1 mM EDTA) were prepared in a flat black 96-well half-area plate (Greiner). Recombinant his-tagged Rac1 protein (Cytoskeleton Inc. Cat. # RC01) was added to the inhibitors at a final concentration of 125 nM along with 12.5 nM Bodipy-TR GTPγS (Life Technologies Inc. Cat. # G35780) in exchange buffer and incubated for 30 minutes at 37° C. in exchange buffer. After 30 minutes of incubation. FP was measured on the M1000 Pro (Tecan) fluorescent plate reader with 590 nm±5 nm excitation and 625 nm±5 nm emission spectra settings."}, "[4]": {"molecular_target": "His-Rac1 / GST-PBD (PAK Binding Domain) (Homo sapiens, UniProt P63000)", "assay": "Rac Activation AlphaScreen Assay (Rac1 AS)", "assay_type": "biochemical", "conditions": "500 nM GTPγS, 37° C., 1 hour; 'positive' = signal generated was higher than the positive control", "protocol": "AlphaScreen® assays were performed in 96-well microplates in a final reaction volume of 60 μl. Recombinant His-Rac1, recombinant GST-PBD (PAK Binding Domain), donor and acceptor beads (PerkinElmer), and inhibitors were incubated in exchange buffer (20 mM Tris pH 7.5, 50 mM NaCl, 1 mM MgCl2, 1 mM EDTA, 500 nM GTPγS (guanosine 5′-[γ-thio]triphosphate)) at 37° C. Readings were performed on a Tecan M1000 pro microplate reader after 1 hour."}, "[5]": {"system": "MCF-7 human breast cancer cell line", "assay": "Cell Viability Assay (MCF7), PrestoBlue", "assay_type": "cell-based", "conditions": "MCF7, 72 h, MCF-7 cells, three days after drug treatment", "protocol": "In order to determine a compound's effect on cell viability, PrestoBlue assays were performed as previously described by Kuhn et al. (2013) with modifications. MCF-7 human breast cancer and IGR-1 human melanoma cell lines were seeded into 96-well plates 24 hours prior to addition of drug. Cells were treated with 0 to 200 μM (11 concentrations) of compound solubilized in DMSO, adjusting the final concentration of DMSO to 1% in the well. Three days after drug treatment, cell viability was measured by adding PrestoBlue (Life Technologies Ltd.; cat. No. A13262) reagent directly to wells containing media/drug to reach a final concentration of 10%. PrestoBlue is a modified molecule of the common Alamar Blue probe used to determine viability based on the ability of a cell to metabolize a nonfluorescent compound (resazurin) to a florescent molecule (resorufin). Following a 1 hour incubation period, total well fluorescence was measured using the microplate reader M1000 pro (Tecan) with excitation 560-5 nm and emission 590-5 nm. […] The percentage of living cells was then computed by comparison with control wells. Kuhn, Jonas et al., Assay and Drug Development Technologies, March 2013, Label-Free Cytotoxicity Screening Assay by Digital Holographic Microscopy."}}, "data": [{"smiles": "FC(F)(F)c1ccc2c(SCCCCCCn3cc(CN4CCOCC4)nn3)ccnc2c1", "note": "(racemic) [Compound 0032253, 4-({6-[4-(morpholin-4-ylmethyl)-1H-1,2,3-triazol-1-yl]hexyl}sulfanyl)-7-(trifluoromethyl)quinoline]", "values": [{"measurement": "expression of phosphorylated AKT", "setting": "WM1158 cells", "value": "reduced as compared to DMSO control"}, {"measurement": "expression of phosphorylated ERK1/2", "setting": "WM1158 cells", "value": "reduced as compared to DMSO control"}, {"measurement": "expression of phosphorylated MEK1/2", "setting": "WM1158 cells", "value": "reduced as compared to DMSO control"}, {"measurement": "HUVEC proliferation", "setting": "HUVECs [1]", "value": "completely inhibits the ability of HUVECs to proliferate"}, {"measurement": "HUVEC tube formation", "setting": "HUVECs [2]", "value": "significantly reduce the ability of HUVECs to form tube like structures"}, {"measurement": "HUVEC migration through a Boyden Chamber", "setting": "HUVECs [3]", "value": "impairs the ability of HUVECs to migrate through a Boyden Chamber"}, {"measurement": "IC50", "setting": "Rac1 protein", "value": 3.42, "unit": "µM"}, {"measurement": "Rac1 AS IC50(uM)", "setting": "[4]", "value": "positive"}, {"measurement": "IC50", "setting": "[5]", "value": 4.38, "unit": "µM"}]}]}
